Experimental data reported in US8221997B2, “Microorganism and method for producing carotenoid using the same” (Tosoh Corporation, priority 2005, dated 2012).

Tested on: Paracoccus sp. strain TSN18E7
Test: Evaluation of growth ability against metabolic analogue β-ionone (colony formation on plate culture medium)
Type: cell-based
Conditions: plate culture medium of Table 2 with β-ionone in DMSO at final 0.01, 1, 2, 5 and 10 mM; 5 days at 25° C.; colonies visually counted
Procedure: bacterium Paracoccus sp. strain TSN18E7 was inoculated in 5 mL of liquid medium shown in Table 1, and cultured for one (1) day at 25° C. under shaking and 150 rpm. The culture solution was diluted in a culture medium shown in Table 1, and spread on a plate culture medium having a composition shown in Table 2 supplemented with β-ionone (Aldrich) dissolved in dimethylsulfoxide (DMSO). β-ionone was supplemented at final concentrations of 0.01, 1, 2, 5 and 10 mM. Then the plate culture medium on which strain TSN18E7 was spread was cultured for 5 days at 25° C. Appearing colonies were visually counted and evaluated for growth ability of strain TSN18E7 for each concentration of β-ionone. The strain TSN18E7 inhibited growth in the presence of β-ionone of 1 mM or more, and formation of colony was not observed. We concluded that for separation of β-ionone resistant strain, suitable β-ionone concentration in culture is 1 mM in final concentration.

CC(=O)/C=C/C1=C(C)CCCC1(C)C [β-ionone]
β-ionone concentration at which growth of the strain is inhibited and formation of colony is not observed: ≥ 1 mM
